Results published in ChEMBL document CHEMBL4138123, “Design, synthesis and biological evaluation of novel pyrazolochalcones as potential modulators of PI3K/Akt/mTOR pathway and inducers of apoptosis in breast cancer cells” (Eur J Med Chem, 2017).

Legend:
Assay type in all cases: functional
[1] = tested on: M14; assay: Cytotoxicity against human M14 cells assessed as cell growth at 1 uM after 48 hrs by sulforhodamine B assay relative to control; settings: M14, 48 h, read-out: Activity
[2] = tested on: NCI/ADR-RES; assay: Cytotoxicity against human NCI/ADR-RES cells assessed as cell growth at 0.1 uM after 48 hrs by sulforhodamine B assay relative to control; settings: read-out: Activity
[3] = tested on: HCT-15; assay: Cytotoxicity against human HCT15 cells assessed as cell growth at 1 uM after 48 hrs by sulforhodamine B assay relative to control; settings: HCT-15, 48 h, read-out: Activity
[4] = tested on: Malme-3M; assay: Cytotoxicity against human MALME-3M cells assessed as cell growth at 100 uM after 48 hrs by sulforhodamine B assay relative to control; settings: read-out: Activity
[5] = tested on: MDA-MB-231; assay: Cytotoxicity against human MDA-MB-231 cells assessed as cell growth at 100 uM after 48 hrs by sulforhodamine B assay relative to control; settings: MDA-MB-231, 48 h, read-out: Activity
[6] = tested on: ACHN; assay: Cytotoxicity against human ACHN cells assessed as cell growth at 10 uM after 48 hrs by sulforhodamine B assay relative to control; settings: read-out: Activity
[7] = tested on: OVCAR-8; assay: Cytotoxicity against human OVCAR8 cells assessed as cell growth at 0.01 uM after 48 hrs by sulforhodamine B assay relative to control; settings: OVCAR-8, 48 h, read-out: Activity
[8] = tested on: TK-10; assay: Cytotoxicity against human TK10 cells assessed as growth inhibition after 48 hrs by sulforhodamine B assay; settings: TK-10, 48 h
[9] = tested on: SK-MEL-5; assay: Cytotoxicity against human SK-MEL-5 cells assessed as growth inhibition after 48 hrs by sulforhodamine B assay; settings: SK-MEL-5, 48 h
[10] = tested on: SW-620; assay: Cytotoxicity against human SW620 cells assessed as cell growth at 0.01 uM after 48 hrs by sulforhodamine B assay relative to control; settings: SW-620, 48 h, read-out: Activity
[11] = tested on: HOP-62; assay: Cytotoxicity against human HOP62 cells assessed as growth inhibition after 48 hrs by sulforhodamine B assay; settings: HOP-62, 48 h
[12] = tested on: RPMI-8226; assay: Cytotoxicity against human RPMI8226 cells assessed as growth inhibition after 48 hrs by sulforhodamine B assay; settings: RPMI-8226, 48 h
[13] = tested on: TK-10; assay: Cytotoxicity against human TK10 cells assessed as cell growth at 10 uM after 48 hrs by sulforhodamine B assay relative to control; settings: TK-10, 48 h, read-out: Activity
[14] = tested on: NCI-H23; assay: Cytotoxicity against human NCI-H23 cells assessed as growth inhibition after 48 hrs by sulforhodamine B assay; settings: NCI-H23, 48 h; for CC50: read-out: LC50 (the source's name)
[15] = tested on: KM12; assay: Cytotoxicity against human KM12 cells assessed as cell growth at 100 uM after 48 hrs by sulforhodamine B assay relative to control; settings: KM12, 48 h, read-out: Activity
[16] = tested on: TK-10; assay: Cytotoxicity against human TK10 cells assessed as cell growth at 0.01 uM after 48 hrs by sulforhodamine B assay relative to control; settings: TK-10, 48 h, read-out: Activity
[17] = tested on: A498; assay: Cytotoxicity against human A498 cells assessed as cell growth at 0.1 uM after 48 hrs by sulforhodamine B assay relative to control; settings: A498, 48 h, read-out: Activity
[18] = tested on: HCC 2998; assay: Cytotoxicity against human HCC2998 cells assessed as cell growth at 10 uM after 48 hrs by sulforhodamine B assay relative to control; settings: HCC 2998, 48 h, read-out: Activity
[19] = tested on: ACHN; assay: Cytotoxicity against human ACHN cells assessed as cell growth at 0.01 uM after 48 hrs by sulforhodamine B assay relative to control; settings: read-out: Activity
[20] = tested on: SK-MEL-28; assay: Cytotoxicity against human SK-MEL-28 cells assessed as cell growth at 0.1 uM after 48 hrs by sulforhodamine B assay relative to control; settings: SK-MEL-28, 48 h, read-out: Activity
[21] = tested on: HT-29; assay: Cytotoxicity against human HT-29 cells assessed as cell growth at 0.1 uM after 48 hrs by sulforhodamine B assay relative to control; settings: HT-29, 48 h, read-out: Activity
[22] = tested on: PC-3; assay: Cytotoxicity against human PC3 cells assessed as cell growth at 100 uM after 48 hrs by sulforhodamine B assay relative to control; settings: PC-3, 48 h, read-out: Activity
[23] = tested on: MDA-MB-435; assay: Cytotoxicity against human MDA-MB-435 cells assessed as cell growth at 0.1 uM after 48 hrs by sulforhodamine B assay relative to control; settings: MDA-MB-435, 48 h, read-out: Activity
[24] = tested on: MDA-MB-468; assay: Cytotoxicity against human MDA-MB-468 cells assessed as cell growth at 1 uM after 48 hrs by sulforhodamine B assay relative to control; settings: MDA-MB-468, 48 h, read-out: Activity
[25] = tested on: SNB-19; assay: Cytotoxicity against human SNB19 cells assessed as growth inhibition after 48 hrs by sulforhodamine B assay; settings: SNB-19, 48 h; for CC50: read-out: LC50 (the source's name)
[26] = tested on: BT-549; assay: Cytotoxicity against human BT549 cells assessed as cell growth at 100 uM after 48 hrs by sulforhodamine B assay relative to control; settings: BT-549, 48 h, read-out: Activity
[27] = tested on: HCT-15; assay: Cytotoxicity against human HCT15 cells assessed as cell growth at 0.1 uM after 48 hrs by sulforhodamine B assay relative to control; settings: HCT-15, 48 h, read-out: Activity
[28] = tested on: MOLT-4; assay: Cytotoxicity against human MOLT4 cells assessed as cell growth at 100 uM after 48 hrs by sulforhodamine B assay relative to control; settings: MOLT-4, 48 h, read-out: Activity
[29] = tested on: NCI-H460; assay: Cytotoxicity against human NCI-H460 cells assessed as cell growth at 0.01 uM after 48 hrs by sulforhodamine B assay relative to control; settings: NCI-H460, 48 h, read-out: Activity
[30] = tested on: A498; assay: Cytotoxicity against human A498 cells assessed as growth inhibition after 48 hrs by sulforhodamine B assay; settings: A498, 48 h
[31] = tested on: SR; assay: Cytotoxicity against human SR cells assessed as cell growth at 0.1 uM after 48 hrs by sulforhodamine B assay relative to control; settings: read-out: Activity
[32] = tested on: UO-31; assay: Cytotoxicity against human UO31 cells assessed as growth inhibition after 48 hrs by sulforhodamine B assay; settings: UO-31, 48 h
[33] = tested on: DU-145; assay: Cytotoxicity against human DU145 cells assessed as cell growth at 1 uM after 48 hrs by sulforhodamine B assay relative to control; settings: DU-145, 48 h, read-out: Activity
[34] = tested on: ACHN; assay: Cytotoxicity against human ACHN cells assessed as cell growth at 100 uM after 48 hrs by sulforhodamine B assay relative to control; settings: read-out: Activity
[35] = tested on: PC-3; assay: Cytotoxicity against human PC3 cells assessed as cell growth at 10 uM after 48 hrs by sulforhodamine B assay relative to control; settings: PC-3, 48 h, read-out: Activity

SMILES: COc1ccc(-c2cc(/C=C/C(=O)c3ccc(N)cc3)[nH]n2)cc1
- growth at 1 µM [1]: 105%
- growth at 0.1 µM [2]: 99%
- growth at 1 µM [3]: 50%
- growth at 100 µM [4]: -82%
- growth at 100 µM [5]: -65%
- growth at 10 µM [6]: 2%
- growth at 0.01 µM [7]: 96%
- GI50 [8]: 2.81 µM
- LC50 [8]: 39.8 µM
- TGI [8]: 13 µM
- GI50 [9]: 2.71 µM
- LC50 (concentration killing 50% of cells) [9]: 30.4 µM
- TGI [9]: 9.25 µM
- growth at 0.01 µM [10]: 100%
- GI50 [11]: 2.8 µM
- LC50 [11]: 61.2 µM
- TGI [11]: 7.49 µM
- GI50 [12]: 0.6 µM
- LC50 [12]: 29.4 µM
- TGI [12]: 3.22 µM
- growth at 10 µM [13]: 12%
- GI50 [14]: 3.22 µM
- TGI [14]: 13.1 µM
- CC50 [14]: 68.4 µM
- growth at 100 µM [15]: -78%
- growth at 0.01 µM [16]: 93%
- growth at 0.1 µM [17]: 97%
- growth at 10 µM [18]: -90%
- growth at 0.01 µM [19]: 103%
- growth at 0.1 µM [20]: 91%
- growth at 0.1 µM [21]: 95%
- growth at 100 µM [22]: -83%
- growth at 0.1 µM [23]: 103%
- growth at 1 µM [24]: 29%
- GI50 [25]: 2.29 µM
- TGI [25]: 11.6 µM
- CC50 [25]: 44.3 µM
- growth at 100 µM [26]: -61%
- growth at 0.1 µM [27]: 100%
- growth at 100 µM [28]: -47%
- growth at 0.01 µM [29]: 101%
- GI50 [30]: 2.03 µM
- LC50 [30]: 15.4 µM
- TGI [30]: 4.95 µM
- growth at 0.1 µM [31]: 98%
- GI50 [32]: 1.18 µM
- LC50 [32]: 5.54 µM
- TGI [32]: 2.56 µM
- growth at 1 µM [33]: 64%
- growth at 100 µM [34]: -73%

SMILES: COc1ccc(C(=O)/C=C/c2cc(-c3ccc(OC)c(OC)c3)n[nH]2)cc1OC
- growth at 1 µM [1]: 92%
- growth at 0.1 µM [2]: 102%
- growth at 1 µM [3]: 53%
- growth at 100 µM [4]: -11%
- growth at 100 µM [5]: -28%
- growth at 10 µM [6]: -54%
- growth at 0.01 µM [7]: 99%
- GI50 [8]: 4.96 µM
- TGI [8]: 47.7 µM
- GI50 [9]: 1.58 µM
- TGI [9]: 2.96 µM
- growth at 0.01 µM [10]: 96%
- GI50 [11]: 1.73 µM
- TGI [11]: 5.6 µM
- GI50 [12]: 0.357 µM
- TGI [12]: 2.26 µM
- growth at 10 µM [13]: 25%
- GI50 [14]: 2.25 µM
- TGI [14]: 5.7 µM
- CC50 [14]: > 100 µM
- growth at 100 µM [15]: -74%
- growth at 0.01 µM [16]: 98%
- growth at 0.1 µM [17]: 81%
- growth at 10 µM [18]: -94%
- growth at 0.01 µM [19]: 93%
- growth at 0.1 µM [20]: 95%
- growth at 0.1 µM [21]: 96%
- growth at 10 µM [35]: 5%
- growth at 100 µM [22]: -4%
- growth at 0.1 µM [23]: 94%
- growth at 1 µM [24]: 55%
- GI50 [25]: 1.67 µM
- TGI [25]: 4.16 µM
- CC50 [25]: > 100 µM
- growth at 100 µM [26]: -89%
- growth at 0.1 µM [27]: 95%
- growth at 0.01 µM [29]: 102%
- GI50 [30]: 1.27 µM
- TGI [30]: 3.2 µM
- growth at 0.1 µM [31]: 81%
- GI50 [32]: 1.5 µM
- TGI [32]: 3.8 µM
- growth at 1 µM [33]: 73%
- growth at 100 µM [34]: -60%
